Measurements taken from PubChem BioAssay (NCI).
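These data come from cells grown in 96-well plates and exposed to compound for 48 hours at five concentrations. TGI is the concentration that stops growth completely.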

Tests used:
Assay in all cases: NCI tumour cell line growth inhibition, 48 h
[1] = tested on: RPMI-8226 leukemia
[2] = tested on: HCT-15 colon
[3] = tested on: T-47D breast
[4] = tested on: SF-268 CNS
[5] = tested on: SK-MEL-5 melanoma
[6] = tested on: HS 578T breast
[7] = tested on: MOLT-4 leukemia
[8] = tested on: PC-3 prostate
[9] = tested on: MALME-3M melanoma
[10] = tested on: CCRF-CEM leukemia
[11] = tested on: MDA-MB-435
[12] = tested on: COLO 205 colon
[13] = tested on: SNB-75 CNS

C=COC(=O)N1C2CCCC(Cl)(C(C)=O)C1CC2 (centres undefined)
TGI [1]: > 100 µM
TGI [2]: > 100 µM
TGI [3]: > 100 µM
TGI [4]: > 100 µM
TGI [5]: > 100 µM
TGI [6]: > 100 µM
TGI [7]: > 100 µM
TGI [8]: > 100 µM
TGI [9]: > 100 µM
TGI [10]: > 100 µM
TGI [11]: > 100 µM
TGI [12]: > 100 µM
TGI [13]: > 100 µM

Cn1c(O)c(C=Nc2ccc(Cl)cc2Cl)c(=O)n(C)c1=O
TGI [1]: > 100 µM
TGI [2]: > 100 µM
TGI [3]: > 100 µM
TGI [4]: > 100 µM
TGI [5]: > 100 µM
TGI [6]: > 100 µM
TGI [7]: > 100 µM
TGI [8]: > 100 µM
TGI [9]: > 100 µM
TGI [10]: > 100 µM
TGI [11]: > 100 µM
TGI [12]: > 100 µM
TGI [13]: > 100 µM

CC(C)C[C@H](NC(=O)CCc1cccc2ccccc12)B(O)O
TGI [1]: 3.95 µM
TGI [2]: 9.01 µM
TGI [3]: 4.23 µM
TGI [4]: 10.1 µM
TGI [5]: 1.85 µM
TGI [6]: 7.4 µM
TGI [7]: 3.86 µM
TGI [8]: 29.3 µM
TGI [9]: 5.23 µM
TGI [11]: 1.02 µM
TGI [12]: 36.3 µM
TGI [13]: > 22.6 µM

Clc1nc(Nc2nc3ccccc3[nH]2)nc(Cl)c1-c1ccccc1
TGI [1]: > 100 µM
TGI [2]: 34.2 µM
TGI [3]: > 100 µM
TGI [4]: > 100 µM
TGI [5]: 53.5 µM
TGI [6]: 56.4 µM
TGI [7]: > 100 µM
TGI [8]: 60.1 µM
TGI [9]: 38.6 µM
TGI [10]: 66.5 µM
TGI [11]: > 100 µM
TGI [12]: 51.3 µM
TGI [13]: 39.7 µM

COc1ccc(C(=O)N(Cc2cccnc2)C(=S)N(Cc2cccnc2)C(=O)c2ccc(OC)cc2)cc1
TGI [1]: > 100 µM
TGI [2]: > 100 µM
TGI [3]: > 100 µM
TGI [4]: > 100 µM
TGI [5]: > 100 µM
TGI [6]: > 100 µM
TGI [7]: > 100 µM
TGI [8]: > 100 µM
TGI [9]: > 100 µM
TGI [10]: > 100 µM
TGI [11]: > 100 µM
TGI [12]: > 100 µM
TGI [13]: 42.9 µM

Cc1ccc(NC(=S)N=Nc2c(O)[nH]c3ccccc23)cc1
TGI [1]: > 100 µM
TGI [2]: > 100 µM
TGI [3]: > 100 µM
TGI [4]: > 100 µM
TGI [5]: > 100 µM
TGI [6]: > 100 µM
TGI [7]: > 100 µM
TGI [8]: > 100 µM
TGI [9]: > 100 µM
TGI [10]: > 100 µM
TGI [11]: > 100 µM
TGI [12]: > 100 µM
TGI [13]: > 100 µM

COC(=O)/C=C/c1cnc2c(c1)oc(=O)n2C
TGI [1]: > 100 µM
TGI [2]: > 100 µM
TGI [3]: > 100 µM
TGI [4]: > 100 µM
TGI [5]: > 100 µM
TGI [6]: > 100 µM
TGI [7]: > 100 µM
TGI [8]: > 100 µM
TGI [9]: > 100 µM
TGI [10]: > 100 µM
TGI [11]: > 100 µM
TGI [12]: > 100 µM
TGI [13]: > 100 µM

CNC(=O)OCC1=C(COC(=O)NC)C(C)N(c2ccccc2)C1 (centres undefined)
TGI [1]: 83 µM
TGI [2]: > 100 µM
TGI [3]: > 100 µM
TGI [4]: > 100 µM
TGI [5]: 41.6 µM
TGI [6]: > 100 µM
TGI [7]: 71.1 µM
TGI [8]: > 100 µM
TGI [9]: 97.4 µM
TGI [10]: > 100 µM
TGI [11]: 96.4 µM
TGI [12]: 48.5 µM
TGI [13]: 94.5 µM
